Where two headings read alike, the source gives them in different places.
Assays:
[1] = target: T1, aurora A kinase (AURKA) (Homo sapiens, UniProt O14965); test: ADP-Glo kinase assay, Aurora A; format: biochemical
T1 construct: purchased BPS Bioscience (assay run externally by the vendor)
T1 sequence (O14965 1-403): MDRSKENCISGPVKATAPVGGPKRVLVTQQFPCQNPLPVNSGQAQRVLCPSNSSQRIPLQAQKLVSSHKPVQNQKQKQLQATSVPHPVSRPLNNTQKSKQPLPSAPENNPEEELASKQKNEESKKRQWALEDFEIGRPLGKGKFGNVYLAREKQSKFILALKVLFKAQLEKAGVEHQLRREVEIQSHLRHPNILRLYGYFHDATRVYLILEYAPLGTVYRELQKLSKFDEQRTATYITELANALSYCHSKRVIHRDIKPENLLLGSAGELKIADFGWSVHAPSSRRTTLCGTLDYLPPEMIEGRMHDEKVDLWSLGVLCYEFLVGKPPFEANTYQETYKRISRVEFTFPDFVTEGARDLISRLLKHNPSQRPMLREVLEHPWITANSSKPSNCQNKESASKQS

[2] = target: EGFR (Homo sapiens, UniProt P00533); test: ADP-Glo kinase assay, EGFR; format: biochemical; parameters: purchased BPS Bioscience (assay run externally by the vendor)
Chain of EGFR (P00533 25-1210): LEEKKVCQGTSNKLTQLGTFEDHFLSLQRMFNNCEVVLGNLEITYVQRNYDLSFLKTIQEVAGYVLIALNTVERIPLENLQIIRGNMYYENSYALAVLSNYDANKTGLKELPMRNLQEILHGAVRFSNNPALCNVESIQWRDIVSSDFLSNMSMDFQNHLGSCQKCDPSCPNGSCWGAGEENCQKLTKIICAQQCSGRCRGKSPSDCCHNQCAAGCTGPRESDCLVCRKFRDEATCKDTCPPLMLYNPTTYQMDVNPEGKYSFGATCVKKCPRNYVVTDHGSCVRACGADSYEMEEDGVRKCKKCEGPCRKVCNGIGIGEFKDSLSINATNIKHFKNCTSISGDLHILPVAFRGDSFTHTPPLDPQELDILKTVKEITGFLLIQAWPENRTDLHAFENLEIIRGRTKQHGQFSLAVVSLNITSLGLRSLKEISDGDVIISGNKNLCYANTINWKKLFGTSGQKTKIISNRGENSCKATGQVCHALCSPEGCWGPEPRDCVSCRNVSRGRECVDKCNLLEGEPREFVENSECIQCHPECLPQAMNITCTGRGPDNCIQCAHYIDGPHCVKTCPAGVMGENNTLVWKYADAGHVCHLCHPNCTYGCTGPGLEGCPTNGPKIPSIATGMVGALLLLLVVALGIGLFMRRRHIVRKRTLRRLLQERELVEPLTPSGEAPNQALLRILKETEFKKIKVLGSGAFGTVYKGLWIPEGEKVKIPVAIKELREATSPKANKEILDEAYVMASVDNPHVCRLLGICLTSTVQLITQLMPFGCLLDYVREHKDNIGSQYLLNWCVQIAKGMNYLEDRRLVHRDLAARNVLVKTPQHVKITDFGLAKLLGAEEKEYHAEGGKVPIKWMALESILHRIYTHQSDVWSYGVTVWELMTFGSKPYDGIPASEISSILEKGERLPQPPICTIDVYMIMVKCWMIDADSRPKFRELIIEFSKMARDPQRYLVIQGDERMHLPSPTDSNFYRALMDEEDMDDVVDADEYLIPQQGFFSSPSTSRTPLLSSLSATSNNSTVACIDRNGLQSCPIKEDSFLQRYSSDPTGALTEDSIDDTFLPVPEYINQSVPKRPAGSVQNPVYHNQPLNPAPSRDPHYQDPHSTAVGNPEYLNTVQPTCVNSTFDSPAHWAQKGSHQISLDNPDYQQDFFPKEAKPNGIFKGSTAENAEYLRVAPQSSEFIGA

## FC(F)(F)c1cccc(Nc2ncnc3[nH]ccc23)c1 [Compound 13, N^4-(3-trifluoromethylphenyl)-7H-pyrrolo[2,3-d]pyrimidin-4-amine]
[1]; 10 µM ATP, triplicate, read-out: AURKA IC50 ± SD
  IC50: 5780 ± 430 nM
[1]; 10 µM ATP/0.2 mg/ml Kemptide, read-out: Aurora A IC50 (dose-response curve, supplement)
  IC50: 5800 nM
[1]; Log[nM] 0
  Aurora A % Activity Set1: 94%
  Aurora A % Activity Set2: 101%
  Aurora A % Activity Set3: 96%
[1]; Log[nM] 1.0
  Aurora A % Activity Set1: 103%
  Aurora A % Activity Set2: 101%
  Aurora A % Activity Set3: 106%
[1]; Log[nM] 1.5
  Aurora A % Activity Set1: 107%
  Aurora A % Activity Set2: 113%
  Aurora A % Activity Set3: 119%
[1]; Log[nM] 2.0
  Aurora A % Activity Set1: 110%
  Aurora A % Activity Set2: 108%
  Aurora A % Activity Set3: 113%
[1]; Log[nM] 2.5
  Aurora A % Activity Set1: 108%
  Aurora A % Activity Set2: 108%
  Aurora A % Activity Set3: 112%
[1]; Log[nM] 3.0
  Aurora A % Activity Set1: 94%
  Aurora A % Activity Set2: 100%
  Aurora A % Activity Set3: 94%
[1]; Log[nM] 3.5
  Aurora A % Activity Set1: 73%
  Aurora A % Activity Set2: 63%
  Aurora A % Activity Set3: 72%
[1]; Log[nM] 4.0
  Aurora A % Activity Set1: 32%
  Aurora A % Activity Set2: 26%
  Aurora A % Activity Set3: 28%
[1]; Log[nM] 4.5
  Aurora A % Activity Set1: 13%
  Aurora A % Activity Set2: 10%
  Aurora A % Activity Set3: 11%
[1]; Log[nM] 5.0
  Aurora A % Activity Set1: 14%
  Aurora A % Activity Set2: 11%
  Aurora A % Activity Set3: 13%
[2]; 10 µM ATP, triplicate, cell without unit, read-out: EGFR IC50 ± SD
  IC50: 43.6 ± 7.77 nM
[2]; 10 µM ATP/0.2 mg/ml Poly-Glu-Tyr, read-out: EGFR IC50 (dose-response curve, supplement)
  IC50: 43.9 nM
[2]; Log[nM] 0
  EGFR % Activity Set1: 91%
  EGFR % Activity Set2: 92%
  EGFR % Activity Set3: 91%
[2]; Log[nM] 1.0
  EGFR % Activity Set1: 66%
  EGFR % Activity Set2: 76%
  EGFR % Activity Set3: 95%
[2]; Log[nM] 1.5
  EGFR % Activity Set1: 54%
  EGFR % Activity Set2: 61%
  EGFR % Activity Set3: 56%
[2]; Log[nM] 2.0
  EGFR % Activity Set1: 29%
  EGFR % Activity Set2: 30%
  EGFR % Activity Set3: 32%
[2]; Log[nM] 2.5
  EGFR % Activity Set1: 17%
  EGFR % Activity Set2: 19%
  EGFR % Activity Set3: 15%
[2]; Log[nM] 3.0
  EGFR % Activity Set1: 8%
  EGFR % Activity Set2: 8%
  EGFR % Activity Set3: 6%
[2]; Log[nM] 3.5
  EGFR % Activity Set1: 3%
  EGFR % Activity Set2: 4%
  EGFR % Activity Set3: 3%
[2]; Log[nM] 4.0
  EGFR % Activity Set1: 0%
  EGFR % Activity Set2: 1%
  EGFR % Activity Set3: 1%
[2]; Log[nM] 4.5
  EGFR % Activity Set1: 0%
  EGFR % Activity Set2: 1%
  EGFR % Activity Set3: 0%
[2]; Log[nM] 5.0
  EGFR % Activity Set1: 0%
  EGFR % Activity Set2: 0%
  EGFR % Activity Set3: 1%
